In patent US7781594B2, “5-(4-methanesulfonyl-phenyl)-thiazole derivatives for the treatment of acute and chronic inflammatory diseases” (Faes Farma, S.A., priority 2008, dated 2010):
“Also recorded” adds a separate entry of the source.

How the values were obtained:
Assay type in all cases: cell-based, human
TNF-alpha = TNF-alpha production by PBMC of healthy volunteers, Cytometric Bead Array
IFN-gamma [1] = assay: IFN-gamma production by PBMC from healthy volunteers, CBA
Protocol: (§1) CBA protocol was followed according to the manufacturer's instructions. The election of microparticles was performed following the summary of FIG. 1.
(§2) The acquisition on samples was performed with the BD FACS Array Bioanalyser System (FACSArray, Becton Dickinson, San José, Calif., USA) and the analysis of the results was completed with the software FCAP Array (Becton Dickinson) in a PC computer.
(§3) Briefly, the experimental protocol consisted of a plate pre-washing out with Wash Buffer. After decantation, the mixture of capture microparticles was re-suspended in the vortex. Standards and samples were added in the adequate dilution. After permanent stirring incubation during 1 h, the PE detection reagent was added and incubated again during 2 h at room temperature. […]
PBMC (5×10^4 cells per well) from 13 healthy volunteers were cultured in duplicate in 200 μl of complete medium supplemented with the highest solvent concentration (10^−6 M), and 10^−6 M, 10^−7 M and 10^−8 M of compound 12 in the presence or absence, either of LPS (10 μg/ml), or anti-CD3 (12.5 ng/ml)+anti-CD28 (⅓×10^5), during 24 hours. Culture supernatants were frozen at −20° C. and the concentration of IFN-gamma was quantified by BD FACS Array Bioanalyser by using CBA Flex Set (Becton Dickinson), specific to determine the concentration of IFN-gamma, following the manufacturer instructions.

IFN-gamma [2] = assay: IFN-gamma production by PBMC from patients with rheumatoid arthritis, CBA
Protocol: as §1, §2, §3
PBMC (5×10^4 cells/well) from 7 patients with rheumatoid arthritis were cultured in duplicate 200 μl of complete medium supplement with the highest solvent concentration (10^−6 M), and 10^−6 M, 10^−7 M and 10^−8 M of compound 12, in the presence and absence either of LPS (10 μg/ml), or anti-CD3 (12.5 ng/ml)+anti-CD28 (⅓×10^5), during 24 hours. Culture supernatants were frozen at −20° C. and IFN-gamma concentration was assessed by BD FACS Array Bioanalyser by using CBA Flex Set, specific to determine IFN-gamma concentration, following the manufacturer instructions.

IL-8 = IL-8 production by PBMC from healthy volunteers, CBA
Protocol: as §1, §2
(§4) Briefly, the experimental protocol consisted of a plate pre-washing out with Wash Buffer. After decantation, the mixture of capture microparticles was re-suspended in the vortex. Standards and samples were added in the adequate dilution. After permanent stirring incubation during 1 h, the PE detection reagent was added and incubated again during 2 h at room temperature. After a washing-out, the acquisition was performed in the flow cytometer.
The effect of compound 12 on the IL-8 production by the PBMC from healthy volunteers was further investigated, both in the presence and absence of LPS stimuli and monoclonal antibodies anti-CD3 and anti-CD28. PBMC (5×10^4 cells/well) from 13 healthy volunteers were cultured in duplicate in 200 μl of complete medium supplemented with the highest solvent concentration (10^−6 M), and 10^−6 M, 10^−7 M and 10^−8 M of compound 12, in the presence and absence of either LPS (10 μg/ml) or anti-CD3 (12.5 ng/ml)+anti-CD28 (⅓×10^5), during 24 hours. Culture supernatants were frozen at −20° C. and IL-8 concentration was quantified by BD FACS Array Bioanalyser by using CBA Flex Set, specific to determine the IL-8 concentration, following the manufacturer instructions.

IL-10 = IL-10 production by PBMC from healthy volunteers, CBA; conditions: FIG. 9
Protocol: as §1, §2, §4
The effects of compound 12 on IL-10 production by the PBMC from healthy volunteers and patients with rheumatoid arthritis were investigated in the presence and absence of LPS stimulation and with the combination of monoclonal antibodies anti-CD3 and anti-CD28. […]

Cc1nc(OC2CCCC2)c(-c2ccc(S(C)(=O)=O)cc2)s1 [Compound 12, 4-cyclopentyloxy-5-(4-methylsulfonyl-phenyl)-2-methyl-thiazole]
Effect on TNF-alpha production by PBMC stimulated with LPS (TNF-alpha; 10^−6 M, 10^−7 M and 10^−8 M, statistically significant (p<0.05), FIG. 3): diminished TNF-alpha production | Effect on TNF-alpha secretion by PBMC, anti-CD3 and anti-CD28 stimulated or spontaneous (TNF-alpha; anti-CD3 + anti-CD28, or absence of exogenous stimuli): neither TNF-alpha secretion by PBMC stimulated with monoclonal antibodies anti-CD3 and anti-CD28 nor spontaneous one (as observed in the absence of exogenous stimuli) was modified | Effect on IFN-gamma production by PBMC, LPS-stimulated or anti-CD3 and anti-CD28 stimulated (IFN-gamma [1]; 10^−6 M, p<0.05, FIG. 5): significantly inhibited | Effect on spontaneous secretion of IFN-gamma by PBMC (IFN-gamma [1]; no stimulus): not modified | Effect on IFN-gamma production by PBMC stimulated with anti-CD3 and anti-CD28 (IFN-gamma [2]; patients with rheumatoid arthritis, 10^−6 M, 10^−7 M and 10^−8 M, p<0.05, FIG. 6): significantly lowered | Effect on IFN-gamma secretion by PBMC, spontaneous or LPS-induced (IFN-gamma [2]; printed 'from healthy volunteers' in the paragraph on patients with rheumatoid arthritis): modified neither the spontaneous IFN-gamma secretion nor the LPS-induced | Effect on IL-8 production under LPS stimulation of PBMC (IL-8): no effects were observed | Effect on spontaneous production of IL-8 by PBMC (IL-8; 10^−6 M and 10^−7 M, p<0.05, FIG. 7): significantly inhibited | Effect on IL-8 production induced by anti-CD3 and anti-CD28 (IL-8; 10^−8 M): significant inhibition | Effect on IL-10 production by PBMC in the presence and absence of LPS or anti-CD3 + anti-CD28 (IL-10): no effects; also recorded: No statistical differences were found
